Eleven compounds from patent publication US20160060260A1, “BROMODOMAIN INHIBITORS FOR TREATING DISEASE” (Board of Regents, The University of Texas System, priority 2014, published 2016) can be followed below.

In general, pIC50 refers to the negative decadic logarithm of the IC50, by convention in mol/L.

pIC50: −log10 of the molar value.

In the test the target is T1, Recombinant human His-tagged Trim24-PHD-bromodomain (Homo sapiens, UniProt O15164).
T1 construct: Recombinant human His-tagged Trim24-PHD-bromodomain (produced in-house); made in house
T1 sequence (O15164 824-1006 limits assumed): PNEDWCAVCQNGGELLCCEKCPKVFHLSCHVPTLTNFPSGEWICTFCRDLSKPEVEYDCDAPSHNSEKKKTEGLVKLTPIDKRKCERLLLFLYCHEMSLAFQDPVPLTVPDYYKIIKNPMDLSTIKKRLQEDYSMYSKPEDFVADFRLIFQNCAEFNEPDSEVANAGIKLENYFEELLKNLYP
Nature of the test: Trim24 AlphaScreen Assay. The following applies: 5 nM Trim24 protein, 15 nM biotinylated H3K23ac (1-33aa) peptide. The class given is binding. The essentials:
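AlphaScreen read-out after 2 h with streptavidin donor and Ni-chelate acceptor beads at 10 ug/mL each, following 1 h room-temperature incubation of compound, His-tagged PHD-bromodomain protein and biotin-H3K23ac (1-33aa) peptide in Hepes pH 7.5 buffer with NaCl and Triton X-100. Signals normalised between no-compound and no-protein wells; IC50 from four-parameter logistic curves.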
Background: In Alpha technology, singlet oxygen from a donor bead excites a nearby acceptor bead.
Turning to `CCCOc1cc(OCCCCCCNC(=O)OC(C)(C)C)cc(Oc2cc3c(cc2NS(=O)(=O)c2cn(C)cn2)n(C)c(=O)n3C)c1` [Example 119, tert-butyl (6-(3-((1,3-dimethyl-6-((1-methyl-1H-imidazole)-4-sulfonamido)-2-oxo-2,3-dihydro-1H-benzo[d]imidazol-5-yl)oxy)-5-propoxyphenoxy)hexyl)carbamate], the pIC50 was 6.00 to 7.00.
With `COCCCOc1cc(C#N)cc(Oc2cc3c(cc2NS(=O)(=O)c2cn(C)c(C)n2)n(C)c(=O)n3C)c1` [Example 120, N-(6-(3-cyano-5-(3-methoxypropoxy)phenoxy)-1,3-dimethyl-2-oxo-2,3-dihydro-1H-benzo[d]imidazol-5-yl)-1,2-dimethyl-1H-imidazole-4-sulfonamide] the figure was 6.00 to 7.00; with `COCCCOc1cc(C#N)cc(Oc2cc3c(cc2NS(=O)(=O)c2ccn(C)n2)n(C)c(=O)n3C)c1` [Example 121, N-(6-(3-cyano-5-(3-methoxypropoxy)phenoxy)-1,3-dimethyl-2-oxo-2,3-dihydro-1H-benzo[d]imidazol-5-yl)-1-methyl-1H-pyrazole-3-sulfonamide], 6.00 to 7.00; with `COCCCOc1cc(OCCCOC)cc(Oc2cc3c(cc2NS(=O)(=O)c2ccc(OC)c(OC)c2)n(C)c(=O)n3C)c1` [Example 122, N-(6-(3,5-bis(3-methoxypropoxy)phenoxy)-1,3-dimethyl-2-oxo-2,3-dihydro-1H-benzo[d]imidazol-5-yl)-3,4-dimethoxybenzenesulfonamide], 7.00 to 8.00.
With `COCCCOc1cc(OCCCOC)cc(Oc2cc3c(cc2NS(=O)(=O)c2cn(C)c(C)n2)n(C)c(=O)n3C)c1` [Example 123, N-(6-(3,5-bis(3-methoxypropoxy)phenoxy)-1,3-dimethyl-2-oxo-2,3-dihydro-1H-benzo[d]imidazol-5-yl)-1,2-dimethyl-1H-imidazole-4-sulfonamide] the figure was 7.00 to 8.00; with `CCCOc1cc(OCCCC#N)cc(Oc2cc3c(cc2NS(=O)(=O)c2cn(C)c(C)n2)n(C)c(=O)n3C)c1` [Example 124, N-(6-(3-(3-cyanopropoxy)-5-propoxyphenoxy)-1,3-dimethyl-2-oxo-2,3-dihydro-1H-benzo[d]imidazol-5-yl)-1,2-dimethyl-1H-imidazole-4-sulfonamide], 7.00 to 8.00.
For `CCCOc1cc(OCC2CC2)cc(Oc2cc3c(cc2NS(=O)(=O)c2cn(C)cn2)n(C)c(=O)n3C)c1` [Example 126, N-(6-(3-(cyclopropylmethoxy)-5-propoxyphenoxy)-1,3-dimethyl-2-oxo-2,3-dihydro-1H-benzo[d]imidazol-5-yl)-1-methyl-1H-imidazole-4-sulfonamide], the pIC50 was 7.00 to 8.00.
With `COc1ccc(S(=O)(=O)Nc2cc3c(cc2Oc2cccc(OCC4CC4)c2)n(C)c(=O)n3C)cc1OC` [Example 127, N-(6-(3-(cyclopropylmethoxy)phenoxy)-1,3-dimethyl-2-oxo-2,3-dihydro-1H-benzo[d]imidazol-5-yl)-3,4-dimethoxybenzenesulfonamide] the figure was 7.00 to 8.00; with `Cn1c(=O)n(C)c2cc(Oc3cccc(OCC4CC4)c3)c(NS(=O)(=O)c3cccnc3)cc21` [Example 128, N-(6-(3-(cyclopropylmethoxy)phenoxy)-1,3-dimethyl-2-oxo-2,3-dihydro-1H-benzo[d]imidazol-5-yl)pyridine-3-sulfonamide], 7.00 to 8.00.
As for `Cc1nc(S(=O)(=O)Nc2cc3c(cc2Oc2ccc(F)c(OCC4CC4)c2)n(C)c(=O)n3C)cn1C` [Example 130, N-(6-(3-(cyclopropylmethoxy)-4-fluorophenoxy)-1,3-dimethyl-2-oxo-2,3-dihydro-1H-benzo[d]imidazol-5-yl)-1,2-dimethyl-1H-imidazole-4-sulfonamide], the pIC50 was less than 6.00.
Next, `COc1ccc(S(=O)(=O)Nc2cc3c(cc2Oc2ccc(F)c(OCC4CC4)c2)n(C)c(=O)n3C)cc1OC` [Example 131, N-(6-(3-(cyclopropylmethoxy)-4-fluorophenoxy)-1,3-dimethyl-2-oxo-2,3-dihydro-1H-benzo[d]imidazol-5-yl)-3,4-dimethoxybenzenesulfonamide]: 6.00 to 7.00.
